Measurements as given in patent publication US10059694B2, “2-aminopyrimidine compound and pharmaceutical composition and use thereof” (Shanghai Institute of Materia Medica, Chinese Academy of …, priority 2014, dated 2018).

Columns and labels:
[1] = biological target: T1, EGFR^T790M/L858R (Homo sapiens, UniProt P00533, L858R/T790M); assay: kinase inhibitory activity test (ELISA), EGFR^T790M/L858R; format: biochemical; conditions: for IC50: ELISA, ATP 5 μM, 1 hour at 37° C.; for kinase inhibitory activity (in words): summary of Table 1
T1 construct: purchased Millipore
T1 sequence (P00533 25-1210 T790M/L858R): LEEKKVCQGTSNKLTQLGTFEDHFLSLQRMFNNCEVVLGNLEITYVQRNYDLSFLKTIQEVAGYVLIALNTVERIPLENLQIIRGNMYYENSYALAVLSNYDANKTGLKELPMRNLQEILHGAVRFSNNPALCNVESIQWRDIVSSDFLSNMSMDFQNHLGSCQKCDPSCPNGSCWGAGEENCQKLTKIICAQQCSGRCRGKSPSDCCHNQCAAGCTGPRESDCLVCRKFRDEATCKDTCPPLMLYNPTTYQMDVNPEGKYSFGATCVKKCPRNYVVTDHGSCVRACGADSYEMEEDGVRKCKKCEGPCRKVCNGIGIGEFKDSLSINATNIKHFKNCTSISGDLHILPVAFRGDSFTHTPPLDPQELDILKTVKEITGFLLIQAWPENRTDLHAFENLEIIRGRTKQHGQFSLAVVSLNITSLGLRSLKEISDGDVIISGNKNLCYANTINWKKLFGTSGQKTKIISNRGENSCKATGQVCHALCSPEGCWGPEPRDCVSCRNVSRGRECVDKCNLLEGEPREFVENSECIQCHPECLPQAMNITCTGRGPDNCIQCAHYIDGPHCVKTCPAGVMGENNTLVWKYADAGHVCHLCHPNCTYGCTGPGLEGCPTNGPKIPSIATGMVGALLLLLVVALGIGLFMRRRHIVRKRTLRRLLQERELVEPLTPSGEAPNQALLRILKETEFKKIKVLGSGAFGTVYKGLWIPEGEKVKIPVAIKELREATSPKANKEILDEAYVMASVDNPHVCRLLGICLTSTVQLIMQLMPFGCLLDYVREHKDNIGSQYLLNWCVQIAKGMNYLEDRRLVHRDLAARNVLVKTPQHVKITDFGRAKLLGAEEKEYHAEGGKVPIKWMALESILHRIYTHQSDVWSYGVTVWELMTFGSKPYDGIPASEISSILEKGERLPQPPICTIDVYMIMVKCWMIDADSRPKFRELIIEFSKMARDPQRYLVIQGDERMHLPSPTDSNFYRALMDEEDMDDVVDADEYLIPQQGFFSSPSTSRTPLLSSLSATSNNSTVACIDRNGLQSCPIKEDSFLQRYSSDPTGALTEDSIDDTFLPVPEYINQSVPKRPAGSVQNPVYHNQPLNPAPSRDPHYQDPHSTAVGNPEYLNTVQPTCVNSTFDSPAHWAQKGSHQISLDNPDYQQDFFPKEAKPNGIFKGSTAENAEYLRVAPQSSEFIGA
Experimental: (§1) The enzyme substrate poly (glutamic acid, tyrosine)4:1 (Sigma) was diluted with potassium-free PBS (10 mM sodium phosphate buffer, 150 mM NaCl, pH 7.2-7.4) to 20 μg/mL, plate coated with 125 μL/well, reacted for 12-16 hours at 37° C. After the liquid in the wells was discarded, the plates were washed three times with 200 μL/well of T-PBS (PBS containing 0.1% Tween-20), and each time for 5 minutes, and then dried for 1-2 hours in an oven at 37° C. 50 μL of ATP solution diluted with reaction buffer (50 mM HEPES pH 7.4, 50 mM MgCl2, 5 mM MnCl2, 0.2 mM Na3VO4, 1 mM DTT) was added into each well and the final concentration was 5 μM. The compounds were diluted with 1% DMSO to suitable concentrations and were added at 10 μL/well. […] The above reaction system was reacted for 1 hour at 37° C. shaking table (100 rpm). Control wells with no enzyme and control wells with DMSO solvent were set in each experiment. After the reaction was completed, the plates were washed three times with T-PBS. The anti-phosphotyrosine primary antibody PY99 (Santa Cruz) was added at 100 μL/well and the antibody was diluted with T-PBS containing BSA 5 mg/mL by 1:1000. The mixture was reacted for 0.5 h at 37° C. shaking table, the plates were washed three times with T-PBS. The secondary antibody which was horseradish peroxidase-labeled goat anti-mouse IgG was added at 100 μL/well (the antibody was diluted with T-PBS containing BSA 5 mg/mL by 1:2000). The mixture was reacted for 0.5 h at 37° C. shaking table, the plates were washed three times with T-PBS. 2 l/mL of OPD coloring solution was added at 100 μL/well (diluted with 0.1 M citric acid-sodium citrate buffer (pH=5.4) containing 0.03% H2O2) and dark reacted for 1 to 10 minutes at 25° C. 2 M H2SO4 was added at 50 μL/well to terminate the reaction. Reading was carried out with an adjustable wavelength microplate enzyme-labeled instrument SPECTRA MAX 190 at 490 nm wavelength.
(§2) The IC50 value was calculated by the four-parameter fitting of the suppression curve.

[2] = biological target: T2, IGF-1R (Homo sapiens, UniProt P08069); assay: kinase inhibitory activity test (ELISA), IGF-1R; format: biochemical; conditions: ATP 5 μM, 1 hour at 37° C.
T2 construct: purchased Millipore
T2 sequence (P08069 31-1367): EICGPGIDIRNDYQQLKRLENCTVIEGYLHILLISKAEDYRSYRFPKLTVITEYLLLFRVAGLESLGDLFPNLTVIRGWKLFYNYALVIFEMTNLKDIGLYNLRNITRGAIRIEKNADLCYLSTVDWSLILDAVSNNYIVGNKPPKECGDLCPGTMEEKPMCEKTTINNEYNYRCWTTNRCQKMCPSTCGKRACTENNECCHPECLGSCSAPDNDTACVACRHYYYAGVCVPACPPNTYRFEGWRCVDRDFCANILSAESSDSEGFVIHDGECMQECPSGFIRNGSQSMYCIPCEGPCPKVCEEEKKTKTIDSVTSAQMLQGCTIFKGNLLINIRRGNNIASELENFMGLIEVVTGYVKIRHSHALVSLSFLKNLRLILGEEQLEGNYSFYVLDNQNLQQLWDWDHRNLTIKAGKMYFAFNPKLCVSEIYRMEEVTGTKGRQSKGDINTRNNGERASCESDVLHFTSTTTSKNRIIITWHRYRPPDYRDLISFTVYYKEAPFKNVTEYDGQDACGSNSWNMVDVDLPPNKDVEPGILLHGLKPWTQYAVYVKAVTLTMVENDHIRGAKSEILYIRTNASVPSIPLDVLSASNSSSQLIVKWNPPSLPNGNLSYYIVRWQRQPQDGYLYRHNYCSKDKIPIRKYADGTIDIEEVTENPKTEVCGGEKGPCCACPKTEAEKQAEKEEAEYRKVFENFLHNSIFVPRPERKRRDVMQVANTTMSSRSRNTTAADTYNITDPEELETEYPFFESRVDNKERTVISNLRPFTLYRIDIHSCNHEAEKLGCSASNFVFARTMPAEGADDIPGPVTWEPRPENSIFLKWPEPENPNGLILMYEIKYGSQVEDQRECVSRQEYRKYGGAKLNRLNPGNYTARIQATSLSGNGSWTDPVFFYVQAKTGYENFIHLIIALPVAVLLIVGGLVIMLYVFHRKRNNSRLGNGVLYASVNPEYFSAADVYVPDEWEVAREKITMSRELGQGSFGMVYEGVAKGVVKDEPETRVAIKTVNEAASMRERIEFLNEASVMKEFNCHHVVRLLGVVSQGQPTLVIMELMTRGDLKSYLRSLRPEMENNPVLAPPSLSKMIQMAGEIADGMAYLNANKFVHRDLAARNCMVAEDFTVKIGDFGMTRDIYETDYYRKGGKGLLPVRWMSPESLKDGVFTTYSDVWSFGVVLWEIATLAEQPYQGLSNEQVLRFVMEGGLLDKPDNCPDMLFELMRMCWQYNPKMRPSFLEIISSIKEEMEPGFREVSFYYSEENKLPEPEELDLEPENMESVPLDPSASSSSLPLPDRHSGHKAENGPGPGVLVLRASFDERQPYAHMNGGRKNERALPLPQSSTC
Experimental: The enzyme substrate poly (glutamic acid, tyrosine)4:1 (Sigma) was diluted with potassium-free PBS (10 mM sodium phosphate buffer, 150 mM NaCl, pH 7.2-7.4) to 20 μg/mL, plate coated with 125 μL/well, reacted for 12-16 hours at 37° C. After the liquid in the wells was discarded, the plates were washed three times with 200 μL/well of T-PBS (PBS containing 0.1% Tween-20), and each time for 5 minutes, and then dried for 1-2 hours in an oven at 37° C. 50 μL of ATP solution diluted with reaction buffer (50 mM HEPES pH 7.4, 50 mM MgCl2, 5 mM MnCl2, 0.2 mM Na3VO4, 1 mM DTT) was added into each well and the final concentration was 5 μM. The compounds were diluted with 1% DMSO to suitable concentrations and were added at 10 μL/well. Then different types of tyrosine kinase proteins (including EGFR^wt, EGFR^T790M/L858R and IGF-1R, purchased from Millipore) diluted with 40 μL of reaction buffer were added. The above reaction system was reacted for 1 hour at 37° C. shaking table (100 rpm). Control wells with no enzyme and control wells with DMSO solvent were set in each experiment. After the reaction was completed, the plates were washed three times with T-PBS. The anti-phosphotyrosine primary antibody PY99 (Santa Cruz) was added at 100 μL/well and the antibody was diluted with T-PBS containing BSA 5 mg/mL by 1:1000. The mixture was reacted for 0.5 h at 37° C. shaking table, the plates were washed three times with T-PBS. The secondary antibody which was horseradish peroxidase-labeled goat anti-mouse IgG was added at 100 μL/well (the antibody was diluted with T-PBS containing BSA 5 mg/mL by 1:2000). The mixture was reacted for 0.5 h at 37° C. shaking table, the plates were washed three times with T-PBS. 2 l/mL of OPD coloring solution was added at 100 μL/well (diluted with 0.1 M citric acid-sodium citrate buffer (pH=5.4) containing 0.03% H2O2) and dark reacted for 1 to 10 minutes at 25° C. 2 M H2SO4 was added at 50 μL/well to terminate the reaction. Reading was carried out with an adjustable wavelength microplate enzyme-labeled instrument SPECTRA MAX 190 at 490 nm wavelength.
as §2

[3] = biological target: T3, EGFR^wt (Homo sapiens, UniProt P00533); assay: kinase inhibitory activity test (ELISA), EGFR^WT; format: biochemical; conditions: ATP 5 μM, 1 hour at 37° C.
T3 construct: purchased Millipore
T3 sequence (P00533 25-1210): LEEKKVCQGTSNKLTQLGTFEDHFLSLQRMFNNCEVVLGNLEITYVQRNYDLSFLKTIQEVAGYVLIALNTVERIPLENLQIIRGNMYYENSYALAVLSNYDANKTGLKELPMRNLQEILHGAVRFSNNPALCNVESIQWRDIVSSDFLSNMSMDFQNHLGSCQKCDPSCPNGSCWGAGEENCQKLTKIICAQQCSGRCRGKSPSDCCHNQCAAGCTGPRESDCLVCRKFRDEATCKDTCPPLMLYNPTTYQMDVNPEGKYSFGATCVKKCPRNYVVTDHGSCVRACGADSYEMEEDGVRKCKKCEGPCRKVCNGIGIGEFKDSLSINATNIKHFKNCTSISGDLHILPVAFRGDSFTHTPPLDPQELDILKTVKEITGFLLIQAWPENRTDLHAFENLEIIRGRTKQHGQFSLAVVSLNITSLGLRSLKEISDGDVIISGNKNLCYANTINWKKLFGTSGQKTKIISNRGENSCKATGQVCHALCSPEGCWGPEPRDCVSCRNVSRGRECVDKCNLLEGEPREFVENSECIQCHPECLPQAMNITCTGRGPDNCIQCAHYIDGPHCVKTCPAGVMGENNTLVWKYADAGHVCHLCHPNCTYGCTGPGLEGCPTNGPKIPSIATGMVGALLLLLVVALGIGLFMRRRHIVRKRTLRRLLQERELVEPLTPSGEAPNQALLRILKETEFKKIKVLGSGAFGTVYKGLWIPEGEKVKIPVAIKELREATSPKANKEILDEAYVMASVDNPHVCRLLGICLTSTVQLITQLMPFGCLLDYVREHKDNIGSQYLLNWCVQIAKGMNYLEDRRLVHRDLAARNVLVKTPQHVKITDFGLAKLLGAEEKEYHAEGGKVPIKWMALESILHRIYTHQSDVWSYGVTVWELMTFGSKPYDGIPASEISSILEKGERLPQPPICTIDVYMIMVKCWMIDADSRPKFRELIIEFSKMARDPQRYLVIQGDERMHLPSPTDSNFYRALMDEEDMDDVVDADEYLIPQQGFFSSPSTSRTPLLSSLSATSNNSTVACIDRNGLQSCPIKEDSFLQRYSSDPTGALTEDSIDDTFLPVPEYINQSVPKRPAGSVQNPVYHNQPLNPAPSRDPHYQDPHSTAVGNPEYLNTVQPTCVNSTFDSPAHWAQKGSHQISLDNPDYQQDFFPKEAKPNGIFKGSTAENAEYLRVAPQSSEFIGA
Experimental: as §1, §2

[4] = tested on: human epidermal carcinoma A431 cell line; assay: SRB proliferation assay, A431 cells; format: cell-based; conditions: A-431, SRB, 72 h, read-out: IC50 A431
Experimental: (§3) Cell lines: human epidermal carcinoma A431 cell line and human non-small cell lung cancer NCI-H1975 cell line was purchased from the American Standard Biology Collection Center (ATCC).
(§4) Methods: sulforhodamine B (SRB) method, which was as follows: certain number of different tumor cells in logarithmic growth phase were inoculated on 96-well culture plates. After cultured for 24 h to cell adherence, different concentrations of the test compounds of the invention were added. Each concentration was provided with three wells, and a corresponding concentration of DMSO solvent control and a cell-free zeroing well were set. After the cells were treated with the medicine for 72 h, the culture medium was discarded and 100 μL of 10% pre-cooled trichloroacetic acid solution was added to fix the cells. After placed for 1 h at 4° C., it was washed for 5 times with distilled water and dried naturally. Then 100 μL SRB (4 mg/mL) (Sigma) solution was added and stained for 15 min at room temperature. The staining solution was discarded and washed for 5 times with 1% glacial acetic acid and dried. Finally, 150 μL of 10 mM Tris solution (pH 10.5) was added and the OD value was measured at 515 nm with adjustable wavelength microplate enzyme-labeled instrument (VERSAmax™, Molecular Device Corporation, Sunnyvale, Calif., USA).

[5] = tested on: human non-small cell lung cancer NCI-H1975 cell line; assay: SRB proliferation assay, NCI-H1975 cells; format: cell-based; conditions: NCI-H1975, SRB, 72 h, read-out: IC50 NCI-H1975
Experimental: as §3
as §4, with “USA). […] Based on the inhibitory effect of the 2-aminopyrimidine compounds on the growth of these cells, the half maximal inhibitory concentration (IC50) values were calculated, as shown in Table 2.” for “USA).”

Compound | IC50 [1] [nM] | IC50 [2] [nM] | IC50 [3] [nM] | IC50 [4] [nM] | IC50 [5] [nM] | kinase inhibitory activity (in words) [1]
C=CC(=O)Nc1cc(Nc2ncc(Cl)c(Nc3ccc4ccccc4c3)n2)c(OC)cc1N1CCN(C)CC1 [CCB120115, N-((5-((5-chloro-4-((naphthalen-2-yl)amino))pyrimidin-2-yl)amino)-2-(4-methylpiperazine)-4-methoxyphenyl)acrylamide] | 1.6 | 28.5 | 40.3 | 2590 | 16 | potent
C=CC(=O)Nc1cc(Nc2ncc(Cl)c(Nc3ccc4ccccc4c3)n2)c(OC)cc1N1CCOCC1 [CCB120117, N-((5-((5-chloro-4-((naphthalen-2-yl)amino))pyrimidin-2-yl)amino)-2-morpholinyl-4-methoxyphenyl)acrylamide] | 9.4 | 18.7 | > 100 | > 10000 | 272 | 
C=CC(=O)Nc1cc(Nc2ncc(Cl)c(Nc3ccc4ccccc4c3)n2)c(OC)cc1N1CCCN(C)CC1 [CCB120120, N-((5-((5-chloro-4-((naphthalen-2-yl)amino))pyrimidin-2-yl)amino)-2-(4-methylhomopiperazinyl)-4-methoxyphenyl)acrylamide] | 0.6 | 18.3 | 31.7 | 260 | 1 to 16 | potent
COc1ccc(NC(=O)/C=C/CN(C)C)cc1Nc1ncc(Cl)c(Nc2ccc3ncccc3c2)n1 [CCB145213, (E)-N-((3-((5-chloro-4-((quinolin-6-yl)amino))pyrimidin-2-yl)amino)-4-methoxyphenyl)-4-(dimethylamino)-2-butenamide] | 43.5 | 37.1 | 615 | 857 | 240 | 

Continued by falling IC50 [1], values first:

IC50 [1] [nM] | IC50 [2] [nM] | IC50 [3] [nM] | IC50 [4] [nM] | IC50 [5] [nM] | kinase inhibitory activity (in words) [1] | Compound
37.6 | 12.5 | 848 | 646 | 170 |  | COc1ccc(NC(=O)/C=C/CN(C)C)cc1Nc1ncc(Cl)c(Nc2cnc3ccccc3c2)n1 [CCB145221, (E)-N-((3-((5-chloro-4-((quinolin-3-yl)amino))pyrimidin-2-yl)amino)-4-methoxyphenyl)-4-(dimethylamino)-2-butenamide]
21.5 | 19.8 | > 100 | 1100 | 51 |  | C=CC(=O)Nc1cc(Nc2ncc(Cl)c(Nc3ccc4ccccc4c3)n2)c(OC)cc1N1CCN(C(C)=O)CC1 [CCB120111, N-((5-((5-chloro-4-((naphthalen-2-yl)amino))pyrimidin-2-yl)amino)-2-(4-acetylpiperazine)-4-methoxyphenyl)acrylamide]
1.3 | 13.7 | > 100 | 324 | 4 |  | C=CC(=O)Nc1cc(Nc2ncc(Cl)c(Nc3ccc4ccccc4c3)n2)c(OC)cc1N1CCC(N(C)C)CC1 [CCB120121, N-((5-((5 chloro-4-((naphthalen-2-yl)amino))pyrimidin-2-yl)amino)-2-(4-dimethylaminopiperidine)-4-methoxyphenyl)acrylamide]
0.6 | 426 | 4.3 | 912 | 164 |  | C=CC(=O)Nc1cc(Nc2ncc(Cl)c(Nc3ccc4ccccc4c3)n2)c(OC)cc1N1CC(N(C)C)C1 [CCB120138, N-((5-((5-chloro-4-((naphthalen-2-yl)amino))pyrimidin-2-yl)amino)-2-(3-dimethylaminoazetidin-1-yl)-4-methoxyphenyl)acrylamide]
0.3 | 56.4 | 16.8 | 425 | 167 | potent | C=CC(=O)Nc1cc(Nc2ncc(Cl)c(Nc3ccc4ccccc4c3)n2)c(OC)cc1N1CCC(N(C)C)C1 (stereo not drawn) [CCB120137, N-((5-((5-chloro-4-((naphthalen-2-yl)amino))pyrimidin-2-yl)amino)-2-(3-dimethylaminopyrrolidin-1-yl)-4-methoxyphenyl)acrylamide]
